Key:
FAK [1] = target: T1, FAK (Homo sapiens, UniProt Q05397); assay: Cell-based capture ELISA for inhibition of FAK autophosphorylation [pY397] in MiaPaCa2 cells
Method: Cell-Based Assays for Inhibition of FAK Autophosphorylation: MiaPaCa2 and U87MG
ELISA kit from Invitrogen (KHO0441).
Reagents Provided in Biosource FAK [pY397]
The cells were then suspended in cell assay medium.

FAK [2] = target: T1, FAK; assay: biochemical
[3] = MIA-PaCa2 cells, + 50% mouse plasma (Table 3), read-out: Mean FAK Cell Mechanistic IC50 + 50% mP MIA-PaCa2
[4] = MIA-PaCa2 cells, + 50% mouse plasma (Table 2), read-out: Mean FAK Cell Mechanistic IC50 + 50% mP MIA-PaCa2
[5] = MIA-PaCa2 cells on fibronectin, 2 h, no plasma, read-out: Mean FAK Cell Mechanistic IC50 MIA-PaCa2
[6] = MIA-PaCa2 cells, + 50% human plasma, read-out: Mean FAK Cell Mechanistic IC50 + 50% hP MIA-PaCa2

T1 sequence (Q05397 whole entry): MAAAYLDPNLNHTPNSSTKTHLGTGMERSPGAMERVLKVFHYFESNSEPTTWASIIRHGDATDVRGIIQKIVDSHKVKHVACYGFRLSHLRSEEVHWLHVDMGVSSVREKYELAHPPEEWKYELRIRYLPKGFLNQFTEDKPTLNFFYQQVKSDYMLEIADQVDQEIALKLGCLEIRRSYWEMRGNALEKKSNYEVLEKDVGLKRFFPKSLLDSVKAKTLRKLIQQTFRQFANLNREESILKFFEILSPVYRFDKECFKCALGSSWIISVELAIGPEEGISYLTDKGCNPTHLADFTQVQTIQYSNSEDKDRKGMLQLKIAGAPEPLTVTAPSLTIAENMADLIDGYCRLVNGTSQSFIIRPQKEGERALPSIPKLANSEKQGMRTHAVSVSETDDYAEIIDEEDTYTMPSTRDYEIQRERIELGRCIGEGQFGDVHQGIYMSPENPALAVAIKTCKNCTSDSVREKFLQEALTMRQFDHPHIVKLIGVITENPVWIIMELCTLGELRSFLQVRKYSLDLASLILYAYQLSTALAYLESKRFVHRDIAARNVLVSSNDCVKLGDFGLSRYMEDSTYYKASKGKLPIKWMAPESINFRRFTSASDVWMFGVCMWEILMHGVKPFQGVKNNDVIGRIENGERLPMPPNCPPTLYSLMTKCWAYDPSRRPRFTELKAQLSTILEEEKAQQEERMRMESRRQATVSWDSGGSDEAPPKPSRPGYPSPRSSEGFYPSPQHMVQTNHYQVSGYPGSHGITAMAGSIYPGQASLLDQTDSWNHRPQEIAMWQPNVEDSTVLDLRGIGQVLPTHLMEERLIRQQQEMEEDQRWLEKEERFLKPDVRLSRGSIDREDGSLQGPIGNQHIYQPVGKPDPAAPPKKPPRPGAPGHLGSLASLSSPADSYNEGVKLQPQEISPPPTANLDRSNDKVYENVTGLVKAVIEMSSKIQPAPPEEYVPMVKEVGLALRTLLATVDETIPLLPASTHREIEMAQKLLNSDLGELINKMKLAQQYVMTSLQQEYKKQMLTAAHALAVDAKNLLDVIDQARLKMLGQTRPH

| Structure (SMILES) | IC50 (FAK [2]) | also measured |
| --- | --- | --- |
| CCOP(=O)(OCC)C1CCC(c2ccc(Nc3nc(Nc4ccccc4OC)ncc3C(F)(F)F)c3c2CN(C)C3=O)CC1 (mixture of isomers) [Example 193, Diethyl {4-[7-({2-[(2-methoxyphenyl)amino]-5-(trifluoromethyl)pyrimidin-4-yl}amino)-2-methyl-1-oxo-2,3-dihydro-1H-isoindol-4-yl]cyclohexyl}phosphonate] | < 1000 nM | IC50 (FAK [1]; [3]): < 1000 nM |
| CCOP(=O)(Cc1ccc(Nc2ncc(C(F)(F)F)c(Nc3ccc([C@H]4CC[C@H](O)CC4)c4c3C(=O)N(C)C4)n2)cc1)OCC (stereo in doubt) [Example 92, Diethyl (4-{[4-{[7-(trans-4-hydroxycyclohexyl)-2-methyl-3-oxo-2,3-dihydro-1H-isoindol-4-yl]amino}-5-(trifluoromethyl)pyrimidin-2-yl]amino}benzyl)phosphonate] | < 1000 nM | IC50 (FAK [1]; [4]): < 1000 nM |
| CCOP(=O)(Cc1ccccc1Nc1ncc(C(F)(F)F)c(NCc2cccnc2N(C)S(C)(=O)=O)n1)OCC [Example 3, Diethyl [2-({4-[({2-[methyl(methylsulfonyl)amino]pyridin-3-yl}methyl)amino]-5-(trifluoromethyl)pyrimidin-2-yl}amino)benzyl]phosphonate] | < 1000 nM | IC50 (FAK [1]; [5]): > 10000 nM; IC50 (FAK [1]; [6]): > 10000 nM |
| CC(C)P(=O)(Cc1ccc(Nc2ncc(C(F)(F)F)c(NCc3cccnc3N(C)S(C)(=O)=O)n2)cc1)C(C)C [Example 8, N-[3-({[2-({4-[(Dipropan-2-ylphosphoryl)methyl]phenyl}amino)-5-(trifluoromethyl)pyrimidin-4-yl]amino}methyl)pyridin-2-yl]-N-methylmethanesulfonamide] | < 1000 nM | IC50 (FAK [1]; [5]): < 1000 nM; IC50 (FAK [1]; [6]): < 1000 nM; IC50 (FAK [1]; [4]): < 1000 nM |
| CC(C)P(=O)(Cc1cccc(Nc2ncc(C(F)(F)F)c(NCc3cccnc3N(C)S(C)(=O)=O)n2)c1)C(C)C [Example 9, N-[3-({[2-({3-[(Dipropan-2-ylphosphoryl)methyl]phenyl}amino)-5-(trifluoromethyl)pyrimidin-4-yl]amino}methyl)pyridin-2-yl]-N-methylmethanesulfonamide] | < 1000 nM | IC50 (FAK [1]; [5]): < 1000 nM; IC50 (FAK [1]; [6]): < 1000 nM; IC50 (FAK [1]; [4]): < 1000 nM |
| CCOP(=O)(Cc1ccc(Nc2ncc(C(F)(F)F)c(Nc3ccc(-c4cnn(C5CC(O)C5)c4)c4c3C(=O)N(C)C4)n2)c(OC)c1)OCC (centres unmarked) [Example 74, Diethyl (4-{[4-({7-[1-(3-hydroxycyclobutyl)-1H-pyrazol-4-yl]-2-methyl-3-oxo-2,3-dihydro-1H-isoindol-4-yl}amino)-5-(trifluoromethyl)pyrimidin-2-yl]amino}-3-methoxybenzyl)phosphonate] |  | IC50 (FAK [1]; [4]): < 1000 nM |
| CCOP(=O)(Cc1ccc(Nc2ncc(C(F)(F)F)c(Nc3ccc(-c4cnn(CC(C)(C)O)c4)c4c3C(=O)N(C)C4)n2)c(OC)c1)OCC [Example 98, Diethyl (4-{[4-({7-[1-(2-hydroxy-2-methylpropyl)-1H-pyrazol-4-yl]-2-methyl-3-oxo-2,3-dihydro-1H-isoindol-4-yl}amino)-5-(trifluoromethyl)pyrimidin-2-yl]amino}-3-methoxybenzyl)phosphonate] |  | IC50 (FAK [1]; read-out: Mean FAK Cell Mechanistic IC50 + 50% mP MIA-PaCa2, MIA-PaCa2 cells, + 50% mouse plasma (Table 3)): < 1000 nM |
| CCOP(=O)(Cc1ccc(Nc2ncc(C(F)(F)F)c(Nc3ccc(C4=CCN(C(N)=O)CC4)c4c3C(=O)N(C)C4)n2)c(OC)c1)OCC [Example 99, Diethyl (4-{[4-{[7-(1-carbamoyl-1,2,3,6-tetrahydropyridin-4-yl)-2-methyl-3-oxo-2,3-dihydro-1H-isoindol-4-yl]amino}-5-(trifluoromethyl)pyrimidin-2-yl]amino}-3-methoxybenzyl)phosphonate] |  | IC50 (FAK [1]; [3]): < 1000 nM |
| CCOP(=O)(Cc1ccc(Nc2ncc(C(F)(F)F)c(Nc3ccc(N4CCS(=O)(=O)CC4)c4c3C(=O)N(C)C4)n2)cc1)OCC [Example 212, Diethyl (4-{[4-{[7-(1,1-dioxidothiomorpholin-4-yl)-2-methyl-3-oxo-2,3-dihydro-1H-isoindol-4-yl]amino}-5-(trifluoromethyl)pyrimidin-2-yl]amino}benzyl)phosphonate] | < 1000 nM |  |
| CCOP(=O)(Cc1ccc(Nc2ncc(C(F)(F)F)c(Nc3ccc(N4CCOCC4)c4c3C(=O)N(C)C4)n2)c(OC)c1)OCC [Example 215, Diethyl (3-methoxy-4-{[4-{[2-methyl-7-(morpholin-4-yl)-3-oxo-2,3-dihydro-1H-isoindol-4-yl]amino}-5-(trifluoromethyl)pyrimidin-2-yl]amino}benzyl)phosphonate] | < 1000 nM |  |
| CCOP(=O)(Cc1ccc(Nc2ncc(C(F)(F)F)c(Nc3ccc(N4CCN(C)CC4)c4c3C(=O)N(C)C4)n2)c(OC)c1)OCC [Example 224, Diethyl (3-methoxy-4-{[4-{[2-methyl-7-(4-methylpiperazin-1-yl)-3-oxo-2,3-dihydro-1H-isoindol-4-yl]amino}-5-(trifluoromethyl)pyrimidin-2-yl]amino}benzyl)phosphonate] | < 1000 nM |  |
| CCOP(=O)(Cc1ccc(Nc2ncc(C(F)(F)F)c(Nc3ccc(N4CCN(CC(=O)OC(C)(C)C)CC4)c4c3C(=O)N(C)C4)n2)cc1)OCC [Example 225, tert-Butyl [4-(7-{[2-({4-[(diethoxyphosphoryl)methyl]phenyl}amino)-5-(trifluoromethyl)pyrimidin-4-yl]amino}-2-methyl-1-oxo-2,3-dihydro-1H-isoindol-4-yl)piperazin-1-yl]acetate] | < 1000 nM |  |
| CCOP(=O)(Cc1ccc(Nc2ncc(C(F)(F)F)c(Nc3ccc(N4CCN(CC(=O)OC(C)(C)C)CC4)c4c3C(=O)N(C)C4)n2)c(OC)c1)OCC [Example 226, tert-Butyl [4-(7-{[2-({4-[(diethoxyphosphoryl)methyl]-2-methoxyphenyl}amino)-5-(trifluoromethyl)pyrimidin-4-yl]amino}-2-methyl-1-oxo-2,3-dihydro-1H-isoindol-4-yl)piperazin-1-yl]acetate] | < 1000 nM |  |
| CCOP(=O)(Cc1ccc(Nc2ncc(C(F)(F)F)c(Nc3ccc(N4CC(O)C4)c4c3C(=O)N(C)C4)n2)cc1)OCC [Example 227, Diethyl (4-{[4-{[7-(3-hydroxyazetidin-1-yl)-2-methyl-3-oxo-2,3-dihydro-1H-isoindol-4-yl]amino}-5-(trifluoromethyl)pyrimidin-2-yl]amino}benzyl)phosphonate] | < 1000 nM |  |
| CCOP(=O)(Cc1ccc(Nc2ncc(C(F)(F)F)c(Nc3ccc([C@H]4CC[C@H](OP(=O)(O)O)CC4)c4c3C(=O)N(C)C4)n2)c(OC)c1)OCC [Example 228, Diethyl (3-methoxy-4-{[4-({2-methyl-3-oxo-7-[trans-4-(phosphonooxy)cyclohexyl]-2,3-dihydro-1H-isoindol-4-yl}amino)-5-(trifluoromethyl)pyrimidin-2-yl]amino}benzyl)phosphonate] | < 1000 nM |  |
| CCOP(=O)(Cc1ccc(Nc2ncc(C(F)(F)F)c(Nc3ccc([C@H]4CC[C@@H](N5CCN(C(C)=O)CC5)CC4)c4c3C(=O)N(C)C4)n2)c(OC)c1)OCC [Example 237, Diethyl (4-{[4-({7-[cis-4-(4-acetylpiperazin-1-yl)cyclohexyl]-2-methyl-3-oxo-2,3-dihydro-1H-isoindol-4-yl}amino)-5-(trifluoromethyl)pyrimidin-2-yl]amino}-3-methoxybenzyl)phosphonate] |  | IC50 (FAK [1]; [3]): < 1000 nM |
| CCOP(=O)(Cc1ccc(Nc2ncc(C(F)(F)F)c(Nc3ccc(C4=CCNCC4)c4c3C(=O)N(C)C4)n2)cc1)OCC [Example 246, Diethyl (4-{[4-{[2-methyl-3-oxo-7-(1,2,3,6-tetrahydropyridin-4-yl)-2,3-dihydro-1H-isoindol-4-yl]amino}-5-(trifluoromethyl)pyrimidin-2-yl]amino}benzyl)phosphonate] | < 1000 nM |  |
| CCOP(=O)(Cc1ccc(Nc2ncc(C(F)(F)F)c(Nc3ccc(C4=CCN(C)CC4)c4c3C(=O)N(C)C4)n2)cc1)OCC [Example 248, Diethyl (4-{[4-{[2-methyl-7-(1-methyl-1,2,3,6-tetrahydropyridin-4-yl)-3-oxo-2,3-dihydro-1H-isoindol-4-yl]amino}-5-(trifluoromethyl)pyrimidin-2-yl]amino}benzyl)phosphonate] | < 1000 nM |  |
| CCOP(=O)(O)Cc1ccc(Nc2ncc(C(F)(F)F)c(Nc3ccc(N4CCN(C)CC4)c4c3C(=O)N(C)C4)n2)cc1 [Example 249, Ethyl hydrogen (4-{[4-{[2-methyl-7-(4-methylpiperazin-1-yl)-3-oxo-2,3-dihydro-1H-isoindol-4-yl]amino}-5-(trifluoromethyl)pyrimidin-2-yl]amino}benzyl) phosphonate] | < 1000 nM |  |
| CCOP(=O)(Cc1ccc(Nc2ncc(C(F)(F)F)c(Nc3ccc(N4CCN(CC(=O)O)CC4)c4c3C(=O)N(C)C4)n2)c(OC)c1)OCC [Example 252, [4-(7-{[2-({4-[(Diethoxyphosphoryl)methyl]-2-methoxyphenyl}amino)-5-(trifluoromethyl)pyrimidin-4-yl]amino}-2-methyl-1-oxo-2,3-dihydro-1H-isoindol-4-yl)piperazin-1-yl]acetic acid] | < 1000 nM |  |
| CCOP(=O)(O)Cc1ccc(Nc2ncc(C(F)(F)F)c(Nc3ccc(N4CCN(C)CC4)c4c3C(=O)N(C)C4)n2)c(OC)c1 [Example 254, Ethyl hydrogen (3-methoxy-4-{[4-{[2-methyl-7-(4-methylpiperazin-1-yl)-3-oxo-2,3-dihydro-1H-isoindol-4-yl]amino}-5-(trifluoromethyl)pyrimidin-2-yl]amino}benzyl)phosphonate] | < 1000 nM |  |
| CN1Cc2c(c(Nc3nc(Nc4ccc(CP5(=O)OCCCO5)cc4)ncc3C(F)(F)F)ccc2[C@H]2CC[C@H](O)CC2)C1=O [compound 230] |  | IC50 (FAK [1]; [3]): < 1000 nM |

— patent publication US9096624B2 (OSI Pharmaceuticals, LLC, priority 2009, dated 2015)
